# Data taken from patent publication US12527880B2, “Cyanine-based telodendrimers and uses for treating cancer” (priority 2018, dated 2026).
# How the values were obtained:
# [1] = In vivo blood elimination kinetics; design: species or system female Sprague-Dawley rats
# Description: In vivo blood elimination kinetics. The jugular vein of female Sprague-Dawley rats was implanted with catheter for blood collection (Harland, Indianapolis, IN, USA). […] All of the blood samples were collected from the catheter at different time point. Micro-plate reader (SpectraMax M2) was used to measure the ICG concentration at absorbance at 808 nm.
# [2] = female, Sprague-Dawley, rat, blood, iv, 5 mg kg^−1, rats
# Protocol for OSC-3 oral cancer cells: The in vitro cell cytotoxicity, cellular uptake study and combination therapy of samples were assessed on human OSC-3 oral cancer cell line, which was purchased from American type culture collection (ATCC). The cells were cultured with DMEM supplemented with 10% FBS and 1% Penicillin at 37° C. in humidified atmosphere with 5% CO2 for 24 h. Then the samples were added to each well and the cells were incubated at 37° C. for an additional 24 h. After the incubation, the relative cell viabilities were measured by the MTS assay. […] For in vitro chemo-/photothermal combination therapy, OSC-3 cells were seeded into 96-well plates (n=3) and incubated with different samples for 4 h, followed by exposure to an 808 nm NIR laser (0.8 W cm^2, 2 min). Thereafter, the cells were incubated for another 24 h at 37° C. and MTS reagent was added into each well. The relative cell viabilities were then measured by MTS assay. Percentage of cell viability represents drug effect, and 100% means all cells survived. Cell viability was calculated using the following equation: Cell viability (%)=(OD490 nm of treatment/OD490 nm of blank control)×100%. For in vitro cells apoptosis experiment, OSC-3 cells were co-cultured with different samples (DOX concentration: 25 μg mL^−1 and 808 nm NIR laser (0.8 W cm^2, 2 min), if applied) for 8 h. Cells were washed two times and replaced with fresh medium.
Compound,cell viability (OSC-3 oral cancer cells) [%],time to clearance from circulation ([1]; after intravenous administration) [min],"AUC [1, 2] [ng·h/mL]","half-life [1, 2] [min]"
"COc1cccc2c1C(=O)c1c(O)c3c(c(O)c1C2=O)C[C@@](O)(C(=O)CO)C[C@@H]3O[C@H]1C[C@H](N)[C@H](O)[C@H](C)O1 [free DOX, doxorubicin]",61,–,–,–
"CC1(C)C(/C=C/C=C/C=C/C=C2\N(CCCCS(=O)(=O)O)c3ccc4ccccc4c3C2(C)C)=[N+](CCCCS(=O)(=O)[O-])c2ccc3ccccc3c21 [free ICG, indocyanine green]",–,≤ 30,12100,5.22
